Laboratory results reported in ChEMBL document CHEMBL5537208 (J Med Chem, 2024).
≈ marks a conversion by molar mass, not a printed value.

Assays:
[1] = biological target: T1, Orexin/Hypocretin receptor type 1 (Homo sapiens, UniProt O43613)
T1 sequence (O43613 whole entry): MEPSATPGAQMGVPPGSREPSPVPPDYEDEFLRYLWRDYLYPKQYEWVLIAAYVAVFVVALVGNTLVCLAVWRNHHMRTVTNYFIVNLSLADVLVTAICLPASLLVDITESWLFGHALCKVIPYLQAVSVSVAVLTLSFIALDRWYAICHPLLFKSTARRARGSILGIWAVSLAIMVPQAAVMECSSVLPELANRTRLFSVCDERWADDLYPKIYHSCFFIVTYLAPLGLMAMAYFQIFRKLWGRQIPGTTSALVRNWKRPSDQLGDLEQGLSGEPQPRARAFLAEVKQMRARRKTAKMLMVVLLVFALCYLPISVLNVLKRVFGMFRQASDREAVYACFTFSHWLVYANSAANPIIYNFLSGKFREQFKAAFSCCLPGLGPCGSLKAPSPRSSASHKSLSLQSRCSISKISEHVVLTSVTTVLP
Description: Antagonist activity at human OX1R expressed in CHO cells preincubated for 120 mins followed by orexin-A addition by FLIPR assay

[2] = in vitro; details: human, liver microsomes
[3] = biological target: T2, Orexin receptor type 2 (Homo sapiens, UniProt O43614)
T2 sequence (O43614 whole entry): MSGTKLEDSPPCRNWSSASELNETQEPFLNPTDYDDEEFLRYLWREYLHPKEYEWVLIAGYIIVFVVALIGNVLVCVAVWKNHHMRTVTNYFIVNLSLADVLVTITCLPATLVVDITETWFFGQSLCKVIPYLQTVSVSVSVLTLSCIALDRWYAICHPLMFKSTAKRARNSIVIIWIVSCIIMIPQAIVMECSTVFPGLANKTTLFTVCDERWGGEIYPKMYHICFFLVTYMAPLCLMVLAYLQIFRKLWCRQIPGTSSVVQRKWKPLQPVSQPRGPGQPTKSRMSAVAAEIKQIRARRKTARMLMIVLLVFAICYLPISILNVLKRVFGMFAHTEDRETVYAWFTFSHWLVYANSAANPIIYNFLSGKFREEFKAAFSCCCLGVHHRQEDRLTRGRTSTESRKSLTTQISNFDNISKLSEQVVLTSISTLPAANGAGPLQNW
Description: Antagonist activity at human OX2R expressed in CHO cells preincubated for 120 mins followed by orexin-A addition by FLIPR assay

[4] = in vitro; details: rat, liver microsomes
[5] = Apparent permeability across apical to basal side in MDCKI-MDR1 cells; assay type: ADME, cell-based, Canis lupus familiaris; details: dog, MDCK-MDR1
[6] = Apparent permeability across basal to apical side in MDCKI-MDR1 cells; assay type: ADME, cell-based, Canis lupus familiaris; details: dog, MDCK-MDR1
[7] = Unbound drug concentration in Wistar rat plasma at 1 mg/kg, po measured after 1 hr by LC-tandem MS analysis; assay type: ADME, organism-based; details: in vivo
[8] = Unbound drug concentration in Wistar rat brain at 1 mg/kg, po measured after 1 hr by LC-tandem MS analysis; assay type: ADME, organism-based; details: in vivo
[9] = Drug concentration in cerebrospinal fluid of Wistar rat at 1 mg/kg, po measured after 1 hr by LC-tandem MS analysis; assay type: ADME, organism-based; details: read-out: Ct
[10] = Ratio of unbound drug concentration in Wistar rat brain to plasma at 1 mg/kg, po measured after 1 hr by LC-tandem MS analysis; assay type: ADME, organism-based; details: read-out: K(p,uu,brain)
[11] = Solubility of compound in FeSSIF; assay type: ADME
[12] = biological target: T3, Orexin/Hypocretin receptor type 1 (Rattus norvegicus) (UniProt P56718); details: Wistar, dose 1.0 mg/kg, route po, time 1.0 hrs
T3 sequence (whole entry): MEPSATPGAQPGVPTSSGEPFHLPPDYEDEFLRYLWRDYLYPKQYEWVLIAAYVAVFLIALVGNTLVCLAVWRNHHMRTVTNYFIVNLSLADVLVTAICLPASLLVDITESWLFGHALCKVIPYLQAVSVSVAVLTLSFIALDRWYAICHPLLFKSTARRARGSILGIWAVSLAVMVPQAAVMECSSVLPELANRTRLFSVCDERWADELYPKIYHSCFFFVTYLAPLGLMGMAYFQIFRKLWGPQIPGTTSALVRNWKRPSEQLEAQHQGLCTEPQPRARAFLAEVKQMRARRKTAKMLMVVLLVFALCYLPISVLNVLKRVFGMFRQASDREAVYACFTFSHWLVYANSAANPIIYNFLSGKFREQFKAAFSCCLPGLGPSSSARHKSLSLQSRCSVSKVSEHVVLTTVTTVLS

[13] = in vitro; details: dog, MDCK-MDR1
Description: Efflux ratio in MDCKI-MDR1 cells

Compound	IC50 [1] [nM]	microsomal CLint at 1 µM [2] [µL/min/mg]	IC50 [3] [nM]	other results
Cc1cccc(-c2ncncc2C(=O)N2CCC[C@H]2Cc2cccc(-n3nccn3)c2)c1	9.5	–	–	–
O=C(c1ccccc1-n1nccn1)N1CCOC[C@H]1Cc1cccc(-n2nccn2)c1	–	59	–	–
Cc1ccc(-n2nccn2)c(C(=O)N2CCCC[C@H]2Cc2cccc(-n3nccn3)c2)c1	–	634	1.7	microsomal CLint at 1 µM [4]: > 1250 µL/min/mg
O=C(c1ccccc1-c1ncccn1)N1CCC[C@H]1Cc1cccc(-n2nccn2)c1	4.4	–	–	–
Cc1ccc(C(=O)N2CCOC[C@H]2Cc2cc(-n3nccn3)ccc2Cl)c(-n2nccn2)c1	3.1	158	595	–
Cc1ccc(-n2nccn2)c(C(=O)N2CCOC[C@H]2Cc2cccc(-n3nccn3)c2)c1	1.7	119	214	Papp A→B [5]: 15.3 ×10⁻⁶ cm/s; Papp B→A [6]: 55.9 ×10⁻⁶ cm/s; Cp(f) [7]: 36 nM; Drug uptake(free) [8]: 19 nM; concentration at 1 h [9]: 51 nM; Kp uu at 1 h [10]: 0.53; solubility [11]: 46 µg/mL (≈ 107 µM); Occ [12]: > 91%; microsomal CLint at 1 µM [4]: > 1250 µL/min/mg
O=C(c1ccccc1-n1nccn1)N1CCC[C@H]1Cc1cccc(-n2nccn2)c1	5.9	–	–	–
Cc1nc(C(=O)N2CCC[C@H]2Cc2cccc(-n3nccn3)c2)c(-c2ccc3c(c2)OCO3)s1	3.6	–	12	–
COc1ccc(C(=O)N2CCOC[C@H]2Cc2cccc(-n3nccn3)c2)c(-n2nccn2)c1	6.2	157	1430	Papp A→B [5]: 8.7 ×10⁻⁶ cm/s; Papp B→A [6]: 62.4 ×10⁻⁶ cm/s; microsomal CLint at 1 µM [4]: > 1250 µL/min/mg; efflux ratio [13]: 7.2
Cc1ccc(C(=O)N2CCOC[C@H]2Cc2cc(F)cc(-n3nccn3)c2)c(-n2nccn2)c1	3.5	164	–	–
Cc1ccc(C(=O)N2C[C@@H](C)OC[C@H]2Cc2cccc(-n3nccn3)c2)c(-n2nccn2)c1	4	139	215	–
Cc1ccc(C(=O)N2CCO[C@@H](C)[C@H]2Cc2cccc(-n3nccn3)c2)c(-n2nccn2)c1	–	327	–	–
O=C(c1c(F)cccc1-n1nccn1)N1CCOC[C@H]1Cc1cccc(-n2nccn2)c1	–	–	1550	–
Cc1ccc(C(=O)N2CCOC[C@H]2Cc2cc(Cl)cc(-n3nccn3)c2)c(-n2nccn2)c1	1.9	89	–	–
Cc1cccc(-c2sc(C)nc2C(=O)N2CCC[C@H]2Cc2cccc(-c3ncon3)c2)c1	–	–	4.4	–
Cc1ccc(C(=O)N2CCOC[C@H]2Cc2ccc(C)c(-n3nccn3)c2)c(-n2nccn2)c1	1.4	391	184	–

Compound	IC50 [1] [nM]	microsomal CLint at 1 µM [2] [µL/min/mg]	IC50 [3] [nM]	other results
Cc1ccc(C(=O)N2CCOC[C@H]2Cc2cc(-n3nccn3)ccc2C)c(-n2nccn2)c1	4.1	208	1110	–
Cc1ccc(C(=O)N2CCOC[C@H]2Cc2cccc(-n3nccn3)c2)c(-n2nccn2)c1C	2.8	292	2430	Papp A→B [5]: 11.8 ×10⁻⁶ cm/s; Papp B→A [6]: 59.4 ×10⁻⁶ cm/s; Cp(f) [7]: 72 nM; Drug uptake(free) [8]: 147 nM; concentration at 1 h [9]: 370 nM; Kp uu at 1 h [10]: 2.04; solubility [11]: 293 µg/mL (≈ 661 µM); Occ [12]: > 98%; microsomal CLint at 1 µM [4]: > 1250 µL/min/mg; efflux ratio [13]: 5
O=C(c1cc(F)ccc1-n1nccn1)N1CCOC[C@H]1Cc1cccc(-n2nccn2)c1	–	227	–	–
Cc1cccc(-c2sc(C)nc2C(=O)N2CCC[C@H]2Cc2cccc(-n3cccn3)c2)c1	–	–	20	–
Cc1ccc(C(=O)N2C[C@H](C)OC[C@H]2Cc2cccc(-n3nccn3)c2)c(-n2nccn2)c1	11	322	265	–
O=C(c1cccc(F)c1-n1nccn1)N1CCOC[C@H]1Cc1cccc(-n2nccn2)c1	–	104	–	–
Cc1nc(C(=O)N2CCC[C@H]2Cc2cccc(-n3nccn3)c2)c(-c2ccc(F)cc2)s1	17	–	100	–
COc1ccc(-n2nccn2)c(C(=O)N2CCOC[C@H]2Cc2cccc(-n3nccn3)c2)c1	3	121	784	Papp A→B [5]: 6.1 ×10⁻⁶ cm/s; Papp B→A [6]: 60.6 ×10⁻⁶ cm/s; microsomal CLint at 1 µM [4]: > 1250 µL/min/mg; efflux ratio [13]: 10
O=C(c1ccc(F)cc1-n1nccn1)N1CCOC[C@H]1Cc1cccc(-n2nccn2)c1	37	101	1040	–
Cc1ccc(C(=O)N2[C@H](Cc3cccc(-n4nccn4)c3)COC[C@H]2C)c(-n2nccn2)c1	1	623	–	–
Cc1ccc(C(=O)N2CCOC[C@H]2Cc2cccc(-n3nccn3)c2F)c(-n2nccn2)c1	21	170	2020	–
Cc1ccc(-n2nccn2)c(C(=O)N2CCC[C@H]2Cc2cccc(-n3nccn3)c2)c1	0.7	> 1250	7	microsomal CLint at 1 µM [4]: > 1250 µL/min/mg
Cc1ccc(C(=O)N2CCO[C@H](C)[C@H]2Cc2cccc(-n3nccn3)c2)c(-n2nccn2)c1	–	301	–	–
Cc1ccc(C(=O)N2[C@H](Cc3cccc(-n4nccn4)c3)COC[C@@H]2C)c(-n2nccn2)c1	34	239	1830	–
Cc1cccc(-n2nccn2)c1C(=O)N1CCOC[C@H]1Cc1cccc(-n2nccn2)c1	109	–	–	–
Cc1cccc(C(=O)N2CCOC[C@H]2Cc2cccc(-n3nccn3)c2)c1-n1nccn1	5.5	204	–	Papp A→B [5]: 16.1 ×10⁻⁶ cm/s; Papp B→A [6]: 66 ×10⁻⁶ cm/s; Cp(f) [7]: 278 nM; Drug uptake(free) [8]: 260 nM; concentration at 1 h [9]: 1000 nM; Kp uu at 1 h [10]: 0.94; solubility [11]: 337 µg/mL (≈ 785 µM); microsomal CLint at 1 µM [4]: > 1250 µL/min/mg
